Measurements taken from patent US20090028839A1, “Compositions and methods for the prophylaxis and treatment of vaginal infections” (priority 2004, published 2009).

Columns and labels:
Format in all cases: cell-based
Staphylococcus sp. = assay: Agar-well inhibition zones of Lactobacillus culture supernatants; conditions: 400 μl culture supernatant in agar well
Experimental: (§1) To test for their antimicrobial activity, all Lactobacillus isolates were grown anaerobically (to eliminate H2O2 production) in an MRS broth for 24 hours. The supernatants were collected and filter sterilized. Agar plates (Human Blood Tween agar for G.vaginalis, and Tryptic Soy agar with 5% sheep blood for other organisms) were inoculated with tested bacteria and 400 μl of each supernatant was added into the wells punched in the agar plates. The antimicrobial activity was determined by the size of the inhibition zones, similar to the disk method used for the determination of antibiotic activity. From our collection of clinical lactobacilli strains, we selected the strain identified as L. rhamnosus 160 since its extracellular product was characterized as having the highest antimicrobial activity, as shown in Table 1.

Group B Streptococci = assay: as above; conditions: 400 μl culture supernatant in agar well
Experimental: as §1

G. vaginalis ATCC 14018 = assay: as above; conditions: 400 μl culture supernatant in agar well
Experimental: as §1

E. coli = assay: as above; conditions: 400 μl culture supernatant in agar well
Experimental: as §1

[1] = test system: clinical isolates of G. vaginalis; assay: Antibiotic resistance of clinical isolates
Excerpt: The ability of G. vaginalis to induce HIV expression in vitro was investigated in chronically infected U1 cells by measuring HIV p24 antigen concentration. […] Moreover, we have also determined that clinical isolates of G. vaginalis are often resistant to metronidazol (73%), and clindamycin (38%), two drugs of choice for treatment of BV. […] Thus, the major BV-associated pathogens are able to increase sensitivity of human cells to HIV.

CC(O)C(=O)O (stereo not drawn) [Lactic acid] was tested, and the Zone of inhibition (Staphylococcus sp.) was 1.5 mm, the Zone of inhibition (Group B Streptococci) was 1.5 mm and the Zone of inhibition (G. vaginalis ATCC 14018) was 1.5 mm. For the same compound, the Zone of inhibition (E. coli) was 1.5 mm.

For Cc1ncc([N+](=O)[O-])n1CCO [metronidazol], the “Share of clinical isolates of G. vaginalis resistant” value [1] was 73%.

In the case of CCC[C@@H]1C[C@@H](C(=O)N[C@@H]([C@H]2O[C@H](SC)[C@H](O)[C@@H](O)[C@H]2O)[C@H](C)Cl)N(C)C1 [clindamycin], the “Share of clinical isolates of G. vaginalis resistant” value [1] is reported as 38%.
